This is an account of results in paper PMC10053623, “Water-Soluble Fullerene C60 Derivatives Are Effective Inhibitors of Influenza Virus Replication” (Microorganisms, 2023).

Each structure is given as a SMILES string.

Data set [1] has as its system Influenza A/Puerto Rico/8/34 (H1N1) virus. Briefly: microbe, parasite or virus in culture. In kind it is cell-based.
Data set [2] is described as follows: in vitro. As to conditions: dog.

For the compound `CCC(CC)O[C@@H]1C=C(C(=O)O)C[C@H](N)[C@H]1NC(C)=O` [Oseltamivir carboxylate], the “SI, selectivity index, the ratio of CC50 to IC50” value in data set [1] was greater than 667. The IC50 in data set [1] (Influenza A virus, H1N1, MDCK, 72 h, read-out: IC50, inhibitory concentration causing a 50% decrease in virus-induced cell death) was found to be 300 ± 20 nM. The same compound displayed a CC50 at 72 h in data set [2] greater than 200000 nM.
